Our source for the IC50 values is US8748435B2, “Pyrazolo pyrimidine derivatives” (Novartis AG, priority 2011, dated 2014).

SMILES strings stand for the structures. pIC50: −log10 of the molar value. Counter-ions that a name gives are not always drawn.

For one experiment, the target named is mouse GPR4 (Mus musculus (Mouse), UniProt Q8BUD0). As to the kind of experiment: Mouse GPR4 cAMP assay. It counts as cell-based. Here is the method: (§1) HeLa cells stably expressing human GPR4 were established by transfecting the cells with a construct containing the human GPR4 coding sequence. The cells were grown in Dulbecco's Modified Eagle Medium (DMEM)/HAM's tissue culture medium F12 (HAM's F12) supplemented with 10% fetal calf serum (FCS), 100 u/ml penicillin, 100 μg/ml streptomycin and 400 μg/ml G418 and 10 mM Hepes pH 8.0. pH-induced formation of cAMP was determined using the homogeneous time resolved fluorescence (HTRF) technology as provided by CisBio Inc. The cells were seeded in 384-well plates and cultured for 24 hours at 37° C., 5% CO2 before performing the assay. Medium was removed and 10 μl buffer A (Hepes buffered saline (HBS), 10 mM Hepes, pH 8, 2 mM 3-Isobutyl-1-methylxanthin (IBMX)) was added. For compound testing, buffer A with 2× concentrated compounds was used. Cells were incubated for 15 min at room temperature. 10 μl buffer B (HBS, 30 mM Hepes, specific pH) was added to reach the appropriate final pH for stimulation (see below) and incubation was continued for 15 min at room temperature. […] HBS: 130 mM NaCl, 0.9 mM NaH2 PO4, 5.4 mM KCl, 0.8 mM MgSO4, CaCl2 1.8 mM, 25 mM glucose, 10-30 mM Hepes. Adjustment of HBS buffers:
(§2) Compounds were diluted from fresh stock solutions at 10 mM in DMSO to 2 mM and then used for serial dilutions in DMSO.
(§3) In a similar manner, assays for the mouse (m) and rat (r) GPR4 receptors have been established.

In experiment [1] the target is T1, human GPR4 (Homo sapiens (Human), UniProt P46093). As to the kind of experiment: Cell-based assay for human GPR4 activity (pH-induced cAMP formation, HTRF, HeLa cells). Conditions: HeLa cells stably expressing human GPR4, pH-induced cAMP. Here is the method:
b) Cell-Based Assay for Human GPR4 Activity
as §1, §2

Experiment [2] has as its target T1, human GPR4. The experiment in a line: Human GPR4 binding assay with additional human serum albumin (4% HSA). Conditions: binding assay with 4% HSA. Here is the method: (§4) Cells were grown in T175 flasks to a density of about 1×10^6 cells/mL in growth medium. The cells were harvested by centrifugation (3000 rpm for 30 minutes at 4° C.) and the pellet resuspended in ice cold buffer A (20 mM HEPES pH 7.8, 10 mM EDTA, 100 mM NaCl, 1 tab/40 mL protease inhibitor complete). […] The homogenate was centrifuged at 18000 rpm for 50 min at 4° C. and the membrane protein pellet resuspended in cold buffer A using the Polytron (2×20 seconds). The protein concentration is determined using the Bio Rad Protein Assay and human IgG as standard. The volume of the membrane protein suspension is adjusted to a final concentration of about 2 mg protein/mL. The suspension is then once again homogenized (Polytron) on ice at 25000 rpm for 20 seconds before being aliquoted and stored at −80° C.
(§5) Radio Ligand Binding Assay: Serial dilutions of compounds (stock in 10 mM DMSO) are prepared by first diluting the compounds in DMSO followed by a 1:50 dilution into assay buffer (10 mM HEPES, pH 8.0, 100 mM NaCl, 5 mM MgCl2, 1 mM CaCl2, 0.5% fatty acid-free BSA, 0.05% Tween-20). […] The desired amount of membranes (20 μg/well) is diluted with assay buffer. […] 100 μL of the membrane-suspension is added and the plate stirred for 60 minutes. […] The filter plate is washed 5 times with ice-cold wash buffer, dried and sealed at the bottom. Then 20 μL of Microscint 40 is added into each well and the top of the plate is sealed. Finally the plate is counted for 2 min/well in a TopCount NXT instrument (Packard Instruments). The data are analyzed using the GraphPad Prism™ software.
In a similar manner, a binding assay with additional human serum albumin (4% HSA) has been established.

In experiment [3] the target is T1, human GPR4. As to the kind of experiment: Human GPR4 binding assay ([3H]4 radioligand, membranes of 300.19 cells expressing human GPR4). The procedure: a) Human GPR4 Binding Assay
as §4, §5

The target of a further experiment is Human H3 (Homo sapiens (Human), UniProt Q9Y5N1). As to the kind of experiment: Human H3 binding assay (SPA, [3H]-R-alpha-Methylhistamine). Conditions: 3 nM [3H]-R-alpha-Methylhistamine. The procedure:
c) Human H3 Binding Assay
The Scintillation Proximity Binding Assay (SPA) assay was performed in a final volume of 50 μL per well in a 384-well polystyrene plate.
The final concentration of the radioligand was 3 nM. • 20 μL of a beads (PVT-WGA type A) and membranes mixed suspension in assay buffer, in order to get a final concentration of 10 μg/well of membranes and 200 μg/well of beads. As an example, 1471 μL membranes (Conc.: 5.1 mg/mL) and 1500 μL of bead suspension (Conc.: 100 mg/mL) are diluted to a final volume of 15 mL of assay buffer.
The plates were sealed and shaken at room temperature, then allowed to stand at room temperature for at least 1 hour. The plates were counted using a Perkin Elmer TopCount reader, each well being counted for 1 minute.

Another experiment addresses rat GPR4 (Rattus norvegicus (Rat), UniProt Q4KLH9). As to the kind of experiment: Rat GPR4 cAMP assay. The note with it: read-out: r cAMP IC50. The class given is cell-based. The procedure:
as §1, §2, §3

[4] abbreviates: radioligand [3H]4 (example 39), membranes of 300.19 cells expressing human GPR4.

Sequence of Human H3 (Q9Y5N1 whole entry): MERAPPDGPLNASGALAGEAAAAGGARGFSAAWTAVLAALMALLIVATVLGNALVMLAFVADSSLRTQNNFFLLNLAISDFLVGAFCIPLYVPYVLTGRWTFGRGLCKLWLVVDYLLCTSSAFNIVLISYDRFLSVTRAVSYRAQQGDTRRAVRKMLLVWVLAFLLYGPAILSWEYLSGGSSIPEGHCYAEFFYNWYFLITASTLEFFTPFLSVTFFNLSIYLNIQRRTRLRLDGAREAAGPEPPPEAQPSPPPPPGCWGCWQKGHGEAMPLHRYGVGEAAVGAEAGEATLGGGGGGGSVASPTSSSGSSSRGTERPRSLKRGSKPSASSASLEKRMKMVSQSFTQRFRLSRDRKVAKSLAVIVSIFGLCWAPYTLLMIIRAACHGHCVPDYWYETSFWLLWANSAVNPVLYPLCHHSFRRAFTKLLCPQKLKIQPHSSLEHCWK
Sequence of mouse GPR4 (Q8BUD0 whole entry): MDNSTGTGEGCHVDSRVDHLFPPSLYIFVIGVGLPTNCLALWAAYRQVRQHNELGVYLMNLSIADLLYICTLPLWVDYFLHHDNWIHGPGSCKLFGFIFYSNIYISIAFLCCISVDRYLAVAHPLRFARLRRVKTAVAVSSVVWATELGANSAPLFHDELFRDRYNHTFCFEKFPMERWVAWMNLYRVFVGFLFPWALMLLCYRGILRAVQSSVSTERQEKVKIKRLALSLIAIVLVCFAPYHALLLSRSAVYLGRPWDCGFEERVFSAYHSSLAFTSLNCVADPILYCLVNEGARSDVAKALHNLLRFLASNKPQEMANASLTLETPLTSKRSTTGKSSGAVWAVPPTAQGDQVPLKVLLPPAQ
Sequence of rat GPR4 (Q4KLH9 whole entry): as the sequence (Q8BUD0 whole entry) above, with G8W, H51R, S339T counted along it
T1 sequence (P46093 whole entry): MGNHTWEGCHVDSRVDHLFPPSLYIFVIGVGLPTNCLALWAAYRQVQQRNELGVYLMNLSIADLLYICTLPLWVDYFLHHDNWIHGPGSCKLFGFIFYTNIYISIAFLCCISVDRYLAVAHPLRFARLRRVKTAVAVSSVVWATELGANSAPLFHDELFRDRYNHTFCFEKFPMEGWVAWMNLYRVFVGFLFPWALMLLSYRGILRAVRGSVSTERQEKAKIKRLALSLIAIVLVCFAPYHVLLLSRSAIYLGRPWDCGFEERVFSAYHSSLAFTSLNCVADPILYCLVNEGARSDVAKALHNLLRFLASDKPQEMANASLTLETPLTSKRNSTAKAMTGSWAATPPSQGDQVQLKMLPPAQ

With `CCc1nn2c(C)cc(C)nc2c1Cc1ccc(/C=C/CN2CCN(C(=O)[C@H](CO)NC)CC2)cc1` [Example 15, (S)-1-(4-{(E)-3-[4-(2-Ethyl-5,7-dimethyl-pyrazolo[1,5-a]pyrimidin-3-ylmethyl)-phenyl]-allyl}-piperazin-1-yl)-3-hydroxy-2-methylamino-propan-1-one], the pIC50 at mouse GPR4 is 6.67; against human GPR4 [1], 7.25; on human GPR4 [2], 7.36; at human GPR4 [3] (setting [4]), 7.29; on Human H3, 4.59; on rat GPR4, 6.20.
As to `CCc1nn2c(C)cc(C)nc2c1Cc1ccc(/C=C/CN2CCN(C(=O)[C@H]3NCC[C@H]3O)CC2)cc1` [Example 16, (4-{(E)-3-[4-(2-Ethyl-5,7-dimethyl-pyrazolo[1,5-a]pyrimidin-3-ylmethyl)-phenyl]-allyl}-piperazin-1-yl)-((2S,3R)-3-hydroxy-pyrrolidin-2-yl)-methanone dihydrochloride], the pIC50 at mouse GPR4 is 6.70; against human GPR4 [1], 7.39; on human GPR4 [2], 6.92; on human GPR4 [3] (setting [4]), 7.46; on Human H3, less than 4.52; on rat GPR4, 6.08.
With `CCc1nn2c(C)cc(C)nc2c1Cc1ccc(-c2nnc(C3CCN(C(=O)[C@H](CO)NC)CC3)o2)cc1` [Example 38, (S)-1-(4-{5-[4-(2-Ethyl-5,7-dimethyl-pyrazolo[1,5-a]pyrimidin-3-ylmethyl)-phenyl]-[1,3,4]oxadiazol-2-yl}-piperidin-1-yl)-3-hydroxy-2-methylamino-propan-1-one hydrochloride], the pIC50 was 6.74 at mouse GPR4; 7.35 on human GPR4 [1]; 7.54 at human GPR4 [2]; 7.82 at human GPR4 [3] (setting [4]); less than 4.52 at Human H3; 6.09 at rat GPR4.
In the case of `CCc1nn2c(C)cc(C)nc2c1Cc1ccc(-c2nnc([C@H]3CC[C@H](N)CC3)o2)cc1` [Example 36, 4-{5-[4-(2-Ethyl-5,7-dimethyl-pyrazolo[1,5-a]pyrimidin-3-ylmethyl)-phenyl]-[1,3,4]oxadiazol-2-yl}-cyclohexylamine], the pIC50 was 6.55 against mouse GPR4; 7.29 on human GPR4 [1]; 7.77 on human GPR4 [2]; 8.30 at human GPR4 [3] (setting [4]); less than 4.52 at Human H3; 5.64 at rat GPR4.
Turning to `CCc1nn2c(C)cc(C)nc2c1Cc1ccc(/C=C/CN2CCN[C@H](COC)C2)cc1` [Example 10, 2-Ethyl-3-{4-[(E)-3-((S)-3-methoxymethyl-piperazin-1-yl)-propenyl]-benzyl}-5,7-dimethyl-pyrazolo[1,5-a]pyrimidine], the pIC50 was 6.40 on mouse GPR4; 7.27 at human GPR4 [1]; 7.03 on human GPR4 [2]; 7.48 at human GPR4 [3] (setting [4]); less than 4.52 on Human H3; 5.87 at rat GPR4.
In the case of `CCc1nn2c(C)cc(C)nc2c1Cc1ccc(OCCN2CCNCC2)cc1` [Example 26, 2-Ethyl-5,7-dimethyl-3-[4-(2-piperazin-1-yl-ethoxy)-benzyl]-pyrazolo[1,5-a]pyrimidine], the pIC50 is 6.20 against mouse GPR4; 7.02 against human GPR4 [1]; 7.16 on human GPR4 [2]; 7.36 at human GPR4 [3]; less than 4.52 on Human H3; 5.58 on rat GPR4.
Take `CCc1nn2c(C)cc(C)nc2c1Cc1ccc(/C=C/C2(O)CCNCC2)cc1` [Example 1, 4-{(E)-2-[4-(2-Ethyl-5,7-dimethyl-pyrazolo[1,5-a]pyrimidin-3-ylmethyl)-phenyl]-vinyl}-piperidin-4-ol]: the negative-log IC50 (pIC50) against mouse GPR4 was 6.58; against human GPR4 [1], 7.43; at human GPR4 [2] it was 7.60; at human GPR4 [3] it was 7.35; on Human H3, less than 4.52; on rat GPR4, 6.03.
`CCc1nn2c(C)cc(C)nc2c1Cc1ccc(/C=C/CC2(O)CCN(C(=O)CNC)CC2)cc1` [Example 7, 1-(4-{(E)-3-[4-(2-Ethyl-5,7-dimethyl-pyrazolo[1,5-a]pyrimidin-3-ylmethyl)-phenyl]-allyl}-4-hydroxy-piperidin-1-yl)-2-methylamino-ethanone hydrochloride]: the pIC50 was 6.60 against mouse GPR4; 7.48 on human GPR4 [1]; 7.25 at human GPR4 [2]; 7.47 on human GPR4 [3]; less than 4.52 at Human H3; 5.76 on rat GPR4.
As for `CCc1nn2c(C)cc(C)nc2c1Cc1ccc(OCCC2(O)CCNCC2)cc1` [Example 25, 4-{2-[4-(2-Ethyl-5,7-dimethyl-pyrazolo[1,5-a]pyrimidin-3-ylmethyl)-phenoxy]-ethyl}-piperidin-4-ol], the pIC50 was 6.20 against mouse GPR4; 7.28 on human GPR4 [1]; 7.20 on human GPR4 [2]; 6.96 on human GPR4 [3] (setting [4]); less than 4.52 on Human H3; 5.68 at rat GPR4.
`CCc1nn2c(C)cc(C)nc2c1Cc1ccc(/C=C/CC2(O)CNC2)cc1` [Example 2, 3-{(E)-3-[4-(2-Ethyl-5,7-dimethyl-pyrazolo[1,5-a]pyrimidin-3-ylmethyl)-phenyl]-allyl}-azetidin-3-ol]: the pIC50 against mouse GPR4 was 6.20; against human GPR4 [1], 7.26; at human GPR4 [2], 7.28; at human GPR4 [3], 7.47; on Human H3 it was less than 5.00; on rat GPR4, 6.00.
On to `CCc1nn2c(C)cc(C)nc2c1Cc1ccc(OCCN2CCN[C@@H](COC)C2)cc1` [Example 27, 2-Ethyl-3-{4-[2-((R)-3-methoxymethyl-piperazin-1-yl)-ethoxy]-benzyl}-5,7-dimethyl-pyrazolo[1,5-a]pyrimidine], for which the negative-log IC50 (pIC50) against mouse GPR4 was 6.29; against human GPR4 [1], 7.19; at human GPR4 [2] it was 7.09; at human GPR4 [3] (setting [4]) it was 7.23; on Human H3 it was less than 4.52; on rat GPR4, 5.58.
`CCc1nn2c(C)cc(C)nc2c1Cc1ccc(/C=C/CC2(O)CCNCC2)cc1` [Example 3, 4-{(E)-3-[4-(2-Ethyl-5,7-dimethyl-pyrazolo[1,5-a]pyrimidin-3-ylmethyl)-phenyl]-allyl}-piperidin-4-ol]: the pIC50 is 6.91 at mouse GPR4; 7.51 on human GPR4 [1]; 7.31 on human GPR4 [2]; 7.36 at human GPR4 [3] (setting [4]); less than 4.52 on Human H3; 6.47 on rat GPR4.
Take `CCc1nn2c(C)cc(C)nc2c1Cc1ccc(/C=C/C[C@]2(O)CCN[C@@H](C)C2)cc1` [Example 5, (2S,4S)-4-{(E)-3-[4-(2-Ethyl-5,7-dimethyl-pyrazolo[1,5-a]pyrimidin-3-ylmethyl)-phenyl]-allyl}-2-methyl-piperidin-4-ol]: the pIC50 is 7.15 on mouse GPR4; 7.77 against human GPR4 [1]; 7.96 at human GPR4 [2]; 7.82 on human GPR4 [3] (setting [4]); less than 4.52 at Human H3; 6.79 at rat GPR4.
